According to US20070128235A1, “Juvenile hormone transmethylase genes and method of using the same” (Inc. Admin Agency Natl Agr and Bio-oriented Research Org, priority 2003, published 2007):

Experiments:
[1] = tested on: recombinant Bombyx mori JHAMT; assay: Juvenile hormone synthesis by recombinant juvenile hormone acid methyltransferase (enzyme reaction, reverse phase HPLC); format: biochemical; conditions: 25° C.; for production of the corresponding active juvenile hormone in the reaction solution: 100 μg substrate, S-adenosyl methionine, ten minutes, reverse phase HPLC (FIG. 4); for molecular activity (number of substrate molecules changed to reaction product by one molecule of the enzyme in one minute): Tris-HCL 50 mM, pH 7.5, 1 mM S-adenosyl methionine and 100 μM of each JH acid, mean±standard deviation, n=3
Description: (§1) A reverse phase column (CAPCELL PAK C18 UG80 S-5, 3×150 mm, Shiseido) was attached to an HPLC apparatus (JASCO), and juvenile hormones were detected by measuring absorbance at 217 nm using an ultraviolet detector. Samples were flowed at a rate of 0.5 ml/min, at a column retention temperature of 40° C., for 20 minutes, in 60% acetonitrile or 80% acetonitrile.
100 μg of a juvenile hormone acid (either JH I acid, JH II acid, JH III acid, or farnesoic acid) dissolved in toluene was transferred into a silicone-treated glass test tube (10×150 mm) using a glass capillary, and the solvent was removed under a nitrogen stream. 800 μl of buffer (50 mM Tris-Cl, pH 7.5) and 100 μl of 10 mM S-adenosyl methionine solution were added thereto and mixed sufficiently, then left to stand in a 25° C. thermostat water bath for five minutes. 100 μl of the recombinant protein solution obtained by the method of Example 3 was added thereto to initiate enzyme reaction. After ten minutes, 250 μl of reaction termination solution (methanol:water:concentrated aqueous ammonia=10:9:1) was added to terminate the enzyme reaction 1 ml of isooctane was added and mixed sufficiently, then the mixture was centrifuged (2,000 rpm, 15 minutes, room temperature) to separate the organic solvent layer and the aqueous layer. 100 μl of the organic solvent layer was transferred into a small vial using a glass capillary, and then the solvent was removed under a nitrogen stream to obtain a residue, which was dissolved in 100 μl of acetonitrile to analyze the synthesized juvenile hormone by a method using reverse phase HPLC. […] The molecular activities of the recombinant Bombyx mori JHAMT against JH I acid, JH II acid, JH III acid, and farnesoic acid were determined in conditions where the buffer was Tris-HCL (50 mM, pH 7.5), the reaction temperature was 25° C., and the substrates were 1 mM of S-adenosyl methionine and 100 μM of each JH acid. These activities (the number of substrate molecules changed to reaction product by one molecule of the enzyme in one minute) were 1.80±0.32, 1.65±0.23, 0.79 ±0.06, and 0.48±0.07 (mean±standard deviation n=3), respectively. When a saturated straight chain fatty acid or an unsaturated straight chain fatty acid was used as a substrate, methyl esterification by the enzyme was not observed. Therefore, the enzyme reaction was substrate-specific to juvenile hormone acid.

[2] = molecular target: T1, recombinant Drosophila melanogaster JHAMT (Drosophila melanogaster, UniProt Q9VJK8, F166Y/S182N); assay: Molecular activity of recombinant Drosophila melanogaster juvenile hormone acid methyltransferase; format: biochemical; conditions: Tris-HCL 50 mM, pH 7.5; 25° C.; 1 mM S-adenosyl methionine and 100 μM of each JH acid; mean±standard deviation, n=3
T1 construct: to amplify the coding region of the juvenile hormone acid methyltransferase gene from Drosophila melanogaster; made in house
Description: as §1
100 μg of a juvenile hormone acid (either JH I acid, JH II acid, JH III acid, or farnesoic acid) dissolved in toluene was transferred into a silicone-treated glass test tube (10×150 mm) using a glass capillary, and the solvent was removed under a nitrogen stream. 800 μl of buffer (50 mM Tris-Cl, pH 7.5) and 100 μl of 10 mM S-adenosyl methionine solution were added thereto and mixed sufficiently, then left to stand in a 25° C. thermostat water bath for five minutes. 100 μl of the recombinant protein solution obtained by the method of Example 3 was added thereto to initiate enzyme reaction. After ten minutes, 250 μl of reaction termination solution (methanol:water:concentrated aqueous ammonia=10:9:1) was added to terminate the enzyme reaction 1 ml of isooctane was added and mixed sufficiently, then the mixture was centrifuged (2,000 rpm, 15 minutes, room temperature) to separate the organic solvent layer and the aqueous layer. […] The molecular activities of the recombinant Bombyx mori JHAMT against JH I acid, JH II acid, JH III acid, and farnesoic acid were determined in conditions where the buffer was Tris-HCL (50 mM, pH 7.5), the reaction temperature was 25° C., and the substrates were 1 mM of S-adenosyl methionine and 100 μM of each JH acid. […]
cDNAs synthesized by reverse transcription of RNA extracted from a whole adult Drosophila melanogaster were used as a template for PCR using the DMJF primer (SEQ ID NO: 17) and DMJR primer (SEQ ID NO: 18) to amplify the coding region of the juvenile hormone acid methyltransferase gene from Drosophila melanogaster. […] The activity of the recombinant protein was determined by the same method as in Example 4, confirming that the protein encoded by the gene had juvenile hormone acid methyltransferase activity. The molecular activities of the recombinant Drosophila melanogaster JHAMT against JH I acid, JH II acid, JH III acid, and farnesoic acid were determined under conditions where the buffer was Tris-HCL (50 mM, pH 7.5), the reaction temperature was 25° C., and the substrates were 1 mM of S-adenosyl methionine and 100 μM of each JH acid. These activities were determined to be 2.67±0.44, 2.07±0.26, 1.76±0.13, and 2.3±0.51 (mean±standard deviation, n=3), respectively.

T1 sequence (Q9VJK8 whole entry F166Y/S182N): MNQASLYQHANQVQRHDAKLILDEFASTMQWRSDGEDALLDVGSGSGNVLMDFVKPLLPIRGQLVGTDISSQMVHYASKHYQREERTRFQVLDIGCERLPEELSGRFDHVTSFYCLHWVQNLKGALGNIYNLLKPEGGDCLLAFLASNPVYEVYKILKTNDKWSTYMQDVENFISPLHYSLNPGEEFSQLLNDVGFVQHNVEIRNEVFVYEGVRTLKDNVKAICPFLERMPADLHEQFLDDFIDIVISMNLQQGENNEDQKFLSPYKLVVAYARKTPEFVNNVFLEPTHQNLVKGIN

SMILES	production of the corresponding active juvenile hormone in the reaction solution [1]	molecular activity (number of substrate molecules changed to reaction product by one molecule of the enzyme in one minute) [1]	molecular activity [2]
CC/C(=C\CC/C(C)=C/C(=O)O)CCC1OC1(C)CC (stereo not drawn) [JH I acid]	confirmed to be produced	1.80±0.32	2.67±0.44
CC[C@]1(C)O[C@@H]1CC/C(C)=C/CC/C(C)=C/C(=O)O [JH II acid]	confirmed to be produced	1.65±0.23	2.07±0.26
C/C(=C\C(=O)O)CC/C=C(\C)CCC1OC1(C)C (stereo not drawn) [JH III acid]	confirmed to be produced	0.79 ±0.06	1.76±0.13
CC(C)=CCCC(C)=CCCC(C)=CC(=O)O [farnesoic acid]	confirmed to be produced	0.48±0.07	2.3±0.51
